Results taken from publication PMC10322781 (Archives of Toxicology, 2023).
Several values for one entry are separate records, joined by “and”; a condition that tells them apart may be missing. Equal values may be shown once.

Key:
CYP3A4 [1] = target: CYP3A4 (Homo sapiens, UniProt P08684); conditions: microsomes
Method: For this purpose, rifamycins were tested between 0.5 to 50 µM. […] A reaction mixture without CYP3A4 was incubated as negative control. Luminescence signals were normalized to the untreated cell control.

[2] = cited from earlier work
Pgp = assay: Induction of Pgp activity in LS180 cells (rhodamine123 efflux, flow cytometry); assay type: cell-based, human; conditions: LS180, 144 h exposure; for Emax Pgp activity (activation): fold compared to untreated cells; for EC50 at 144 h: human, LS180 cells, probe rhodamine123 (0.4 µM), with zosuquidar (10 µM), rhodamine123 efflux, read-out: EC50 Pgp activity (activation)
Method: To assess the induction of Pgp activity, 200,000 LS180 cells per well were seeded in a 6-well plate, cultured for 3 days and subsequently exposed to rifamycins for 144 h. After treatment, cells were harvested and subjected to the rhodamine efflux assay as described previously (Theile et al. [2013]; Weiss et al. [2008]). Briefly, cells were incubated with the fluorescent Pgp substrate rhodamine123 (0.4 µM) on a rotary shaker for 30 min at 37 °C under protection from light. Subsequently, cells were incubated with the selective Pgp inhibitor zosuquidar (10 µM) for 50 min at 37 °C on a rotary shaker. Medium without zosuquidar was used as a negative control. All washing steps were performed with ice-cold PBS at 4 °C. Intracellular rhodamine123 fluorescence was determined using a flow cytometer (MACSQuant analyzer 10, Miltenyi Biotec, Bergisch Gladbach, Germany). Thirty thousand cells were used for the analysis. For data evaluation, the ratio of zosuquidar-inhibited samples to non-inhibited samples of the rifamycin experiment was calculated and normalized to the ratio of untreated cell controls (no rifamycin treatment).

[3] = parameters: method as in Zhang et al. [2008]; conditions: 300 mg rifabutin; ref Zhang et al. [2008]; cited from earlier work
ABCB1 = ABCB1 mRNA expression in LS180 cells (real-time RT-PCR); assay type: cell-based, human; conditions: for EC50 at 24 h / EC50 at 96 h / EC50 at 144 h: human, LS180 cells
Method: (§1) A random hexamer primer was used according to the manufacturer’s instructions. […] Experiments were performed in four independent biological replicates with technical duplicates (PCR runs) for each concentration.

CYP3A4 [4] = system: CYP3A4
Method: To determine CYP3A4 activity in LS180 cells after rifamycin treatment, 20,000 cells per well were seeded into 96-well plates and allowed to grow for 3 days until 70% confluency. […] Cells were washed twice with PBS and then pre-incubated with PBS + 2% FCS for 30 min at 37 °C. PBS was removed and replaced by 50 µL of 3 µM luciferin-IPA (selective CYP3A4 substrate) and incubated for 60 min at 37 °C. After incubation, 25 µL supernatant from each well was transferred to a white 96-well plate and 25 µL detection reagent (containing luciferase) was added. Cells were subsequently incubated for 20 min at room temperature. […] CYP3A4 activity was normalized to untreated controls.

P388 cells = assay: Calcein assay in parental P388 cells; assay type: cell-based, murine
mdr1a/b = assay: Pgp inhibition calcein assay in P388/dx cells; assay type: cell-based, murine; conditions: for Emax Pgp inhibition: calcein assay, fold compared to untreated cells; for IC50: calcein efflux
Method: To investigate the potential Pgp inhibition by the rifamycins, the murine monocytic leukaemia cell line P388/dx (overexpressing the murine Pgp counterpart mdr1a/b (Boesch et al. [1991])) and the corresponding parental cell line P388 were used (kindly provided by Dr. D. Ballinari; Pharmacia & Upjohn, Milan, Italy). Cells were cultured under standard conditions with RPMI 1640 cell culture medium supplemented with FCS 10%, 2 mM glutamine, […] β-mercaptoethanol, 100 U/mL penicillin, and 100 µg/mL streptomycin sulphate. The culture medium of the P388/dx cell line was additionally supplemented with doxorubicin (final concentration: 0.45 µM) to maintain mdr1a/b expression. One day before the experiments, P388/dx cells were set to doxorubicin-free medium.
Pgp activity was determined using a calcein assay as described previously (Fröhlich et al. [2004]) with zosuquidar (10 µM) as a positive control.

LS180 cells = assay type: in vitro ADME; conditions: human
Method: The UPLC-MS/MS system consisted of a triple stage quadrupole mass spectrometer (Waters Xevo TQ-S, Milford, MA, USA) and an Acquity Classic UPLC® (Waters). Mass spectrometric analysis was performed by selective reaction monitoring using positive electrospray ionization. […] Because of their considerable molecular size, rifamycins were chromatographically separated on a Waters Peptide BEH C18 Column (300 Å, 1.7 μm, 2.1 mm × 50 mm) to foster optimal mass transfer kinetics. The mobile phase was composed of H20/ACN (95/5, v/v) + 0.1% FA (eluent A) and ACN + 0.1% FA (eluent B). […] The total run time was 4 min, and the column was heated to 60 °C. The injection volume was set to 20 μL with a flow rate of 0.5 mL/min. A pellet of untreated LS180 cells (500,000 cells/sample) was used for calibration standards and QC standard. […] Subsequently, proteins were precipitated with 110 μL ACN (uptake samples) or 100 μL ACN (calibration standards and QC standards). […] To determine intracellular rifamycin concentrations, measured compound concentrations were normalized to the total pellet volume. This was achieved by multiplying the measured mean cellular volume of a LS180 cell (CASY cell counter, Schärfe System, Reutlingen, Germany) by the mean cell number of four wells of an identically prepared and treated cell culture plate.

CYP3A4 [5] = system: CYP3A4; remark: listed apart in the source
Method: as §1

[6] = LS180, 24 h, fold induction compared to untreated cells
[7] = LS180, 96 h, fold induction compared to untreated cells
[8] = LS180, 144 h, fold induction compared to untreated cells
[9] = LS180, 24 h, extracellular concentration
[10] = LS180, 24 h (24*), intracellular concentrations

Chain of CYP3A4 (Homo sapiens, UniProt P08684) (P08684 whole entry): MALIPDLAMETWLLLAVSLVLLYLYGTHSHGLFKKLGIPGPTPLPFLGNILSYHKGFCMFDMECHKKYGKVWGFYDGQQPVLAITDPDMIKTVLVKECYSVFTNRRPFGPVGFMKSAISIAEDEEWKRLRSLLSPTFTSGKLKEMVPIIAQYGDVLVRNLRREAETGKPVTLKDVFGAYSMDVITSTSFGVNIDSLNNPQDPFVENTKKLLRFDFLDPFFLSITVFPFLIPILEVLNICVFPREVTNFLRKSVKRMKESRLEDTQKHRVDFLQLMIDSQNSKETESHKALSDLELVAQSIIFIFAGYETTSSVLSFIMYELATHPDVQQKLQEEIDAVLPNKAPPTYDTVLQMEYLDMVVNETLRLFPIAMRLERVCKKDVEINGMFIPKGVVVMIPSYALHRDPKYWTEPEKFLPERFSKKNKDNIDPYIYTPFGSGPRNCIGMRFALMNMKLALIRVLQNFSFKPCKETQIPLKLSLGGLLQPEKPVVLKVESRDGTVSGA

| SMILES | Emax Pgp activity (activation) (Pgp) [fold] | EC50 at 144 h (Pgp) [nM] | Emax ABCB1 mRNA expression (ABCB1; [6]) [fold] | Emax ABCB1 mRNA expression (ABCB1; [7]) [fold] | Emax ABCB1 mRNA expression (ABCB1; [8]) [fold] | EC50 at 24 h (ABCB1; [9]) [nM] | EC50 at 96 h (ABCB1; LS180, 96 h) [nM] | EC50 at 144 h (ABCB1; LS180, 144 h) [nM] | intracellular calcein fluorescence (P388 cells) | Emax Pgp inhibition (mdr1a/b) [fold] | IC50 (mdr1a/b) [nM] | also measured |
| --- | --- | --- | --- | --- | --- | --- | --- | --- | --- | --- | --- | --- |
| CN(C)C(=N)N=C(N)N [metformin] |  |  |  |  |  |  |  |  |  |  |  | effect on CYP3A4 activity (CYP3A4 [1]): no effect |
| CO[C@H]1/C=C/O[C@@]2(C)Oc3c(C)c(O)c4c(c3C2=O)C2=NC3(CCN(CC(C)C)CC3)NC2=C(NC(=O)/C(C)=C\C=C\[C@H](C)[C@H](O)[C@@H](C)[C@@H](O)[C@@H](C)[C@H](OC(C)=O)[C@@H]1C)C4=O [Rifabutin] | 2.8 ± 0.48 | 1100 ± 160 | 1.4 ± 0.024 | 2.8 ± 0.16 | 4.5 ± 0.71 | 1100 ± 27 | 1800 ± 1100 | 1500 ± 720 | remained unchanged | 4.9 ± 1.3 | 320 ± 100 | effect on dabigatran etexilate kinetics ([2]; 300 mg rifabutin, ref Lutz et al., CPT [2018b]): not affected; reduction of bioavailability of doravirine ([2]; repeated administration of 300 mg rifabutin, ref Khalilieh et al. [2018]): 50%; reduction of bioavailability of indinavir ([2]; repeated administration of 300 mg rifabutin, ref Kraft et al. [2004]): 34%; expected drug concentration in the gut lumen [3]: approx. 1.4 mM; lowering of CYP3A4 activity (CYP3A4 [1]; human): approx. 80%; concentration dependence of CYP3A4 activity (CYP3A4 [4]): no concentration dependence; increase in CYP3A4 activity after exposure (CYP3A4 [4]): no detectable increase; IC50 (mdr1a/b; listed as rifabutin): 300 nM; time to reach intracellular concentration equilibrium (LS180 cells): 6 h; molar metabolite-to-parent ratio (25-O-deacetyl metabolite) (LS180 cells; 10 µM): 0.002 to 0.006; increase of CYP3A4 mRNA levels (CYP3A4 [5]): twofold |
| CO[C@H]1/C=C/O[C@@]2(C)Oc3c(C)c(O)c4c(O)c(c(/C=N/N5CCN(C)CC5)c(O)c4c3C2=O)NC(=O)/C(C)=C\C=C\[C@H](C)[C@H](O)[C@@H](C)[C@@H](O)[C@@H](C)[C@H](OC(C)=O)[C@@H]1C [Rifampicin] | 3.2 ± 0.37 | 1000 ± 1.4 | 2.6 ± 0.068 | 5.1 ± 0.12 | 7.0 ± 0.53 | 8600 ± 470 | 1100 ± 56 | 1000 ± 65 | remained unchanged | 4.3 ± 0.53 | 13000 ± 4100 | lowering of exposure to indinavir ([2]; repetitive administration of 600 mg standard dose of rifampicin, ref Avihingsanon et al. [2012]): approx. 90%; lowering of exposure to doravirine ([2]; repetitive administration of 600 mg standard dose of rifampicin, ref Yee et al. [2017]): approx. 90%; EC50 (ABCB1; [10]): 37000 ± 2000 nM; Emax ABCB1 mRNA expression (ABCB1; LS180, 24 h (24*), intracellular concentrations, compared to untreated): 2.6 fold and 2.6 ± 0.068 fold; EC50 at 24 h (ABCB1; [10]): 37400 nM; IC50 (mdr1a/b; listed as rifampicin): 12900 nM |
